ChEMBL document CHEMBL5584328, “Integrating computational and experimental chemical biology revealed variable anticancer activities of phosphodiesterase isoenzyme 5 inhibitors (PDE5i) in lung cancer” (RSC Med Chem, 2024)
The source made the active and inactive calls. The rule behind the calls is not given here.

Tests used:
A549 [1] = assay: Antiproliferative activity against human A549 cells measured after 24 hrs by MTT assay; format: functional, cell-based
A549 [2] = assay: Antiproliferative activity against human A549 cells measured after 48 hrs by MTT assay; format: functional, cell-based
A549 [3] = assay: Antiproliferative activity against human A549 cells measured after 72 hrs by MTT assay; format: functional, cell-based
NCI-H1299 [4] = assay: Antiproliferative activity against human NCI-H1299 cells measured after 24 hrs by MTT assay; format: functional, cell-based
NCI-H1299 [5] = assay: Antiproliferative activity against human NCI-H1299 cells measured after 48 hrs by MTT assay; format: functional, cell-based
NCI-H1299 [6] = assay: Antiproliferative activity against human NCI-H1299 cells measured after 72 hrs by MTT assay; format: functional, cell-based
NCI-H661 [7] = assay: Antiproliferative activity against human NCI-H661 cells measured after 24 hrs by MTT assay; format: functional, cell-based
NCI-H661 [8] = assay: Antiproliferative activity against human NCI-H661 cells measured after 48 hrs by MTT assay; format: functional, cell-based
NCI-H661 [9] = assay: Antiproliferative activity against human NCI-H661 cells measured after 72 hrs by MTT assay; format: functional, cell-based
A549 [10] = assay: Antiproliferative activity against human A549 cells by MTT assay; format: functional, cell-based; settings: time 24-72 hrs, TDE = time-dependent effect
NCI-H1299 [11] = assay: Antiproliferative activity against human NCI-H1299 cells by MTT assay; format: functional, cell-based; settings: time 24-72 hrs, TDE = time-dependent effect
NCI-H661 [12] = assay: Antiproliferative activity against human NCI-H661 cells by MTT assay; format: functional, cell-based; settings: time 24-72 hrs, TDE = time-dependent effect
A549 [13] = assay: Potentiation of cisplatin-induced cytotoxicity against human A549 cells assessed as combination index at 1:5 ratio of cisplatin to compound measured after 48 hrs by MTT assay; format: functional
NCI-H1299 [14] = assay: Potentiation of cisplatin-induced cytotoxicity against human NCI-H1299 cells assessed as combination index at 1:4 ratio of cisplatin to compound measured after 48 hrs by MTT assay; format: functional
NCI-H661 [15] = assay: Potentiation of cisplatin-induced cytotoxicity against human NCI-H661 cells assessed as combination index at 1:4 ratio of cisplatin to compound measured after 48 hrs by MTT assay; format: functional
A549 [16] = assay: Potentiation of cisplatin-induced cytotoxicity against human A549 cells assessed as fold reduction in cisplatin IC50 at 1:5 ratio of cisplatin to compound measured after 48 hrs by MTT assay relative to cisplatin alone; format: functional
NCI-H1299 [17] = assay: Potentiation of cisplatin-induced cytotoxicity against human NCI-H1299 cells assessed as fold reduction in cisplatin IC50 at 1:4 ratio of cisplatin to compound measured after 48 hrs by MTT assay relative to cisplatin alone; format: functional
NCI-H661 [18] = assay: Potentiation of cisplatin-induced cytotoxicity against human NCI-H661 cells assessed as fold reduction in cisplatin IC50 at 1:4 ratio of cisplatin to compound measured after 48 hrs by MTT assay relative to cisplatin alone; format: functional
A549 [19] = assay: Potentiation of raloxifene-induced cytotoxicity against human A549 cells assessed as combination index at 1:3 ratio of raloxifene to compound measured after 48 hrs by MTT assay; format: functional
NCI-H1299 [20] = assay: Potentiation of raloxifene-induced cytotoxicity against human NCI-H1299 cells assessed as combination index at 1:2 ratio of raloxifene to compound measured after 48 hrs by MTT assay; format: functional
NCI-H661 [21] = assay: Potentiation of raloxifene-induced cytotoxicity against human NCI-H661 cells assessed as combination index at 1:2 ratio of raloxifene to compound measured after 48 hrs by MTT assay; format: functional
A549 [22] = assay: Potentiation of raloxifene-induced cytotoxicity against human A549 cells assessed as fold reduction in raloxifene IC50 at 1:3 ratio of raloxifene to compound measured after 48 hrs by MTT assay relative to raloxifene alone; format: functional
NCI-H1299 [23] = assay: Potentiation of raloxifene-induced cytotoxicity against human NCI-H1299 cells assessed as fold reduction in raloxifene IC50 at 1:2 ratio of raloxifene to compound measured after 48 hrs by MTT assay relative to raloxifene alone; format: functional
NCI-H661 [24] = assay: Potentiation of raloxifene-induced cytotoxicity against human NCI-H661 cells assessed as fold reduction in raloxifene IC50 at 1:2 ratio of raloxifene to compound measured after 48 hrs by MTT assay relative to raloxifene alone; format: functional
NCI-H1299 [25] = assay: Antimigratory activity against human NCI-H1299 cells assessed as reduction in wound closure measured after 24 hrs by wound healing assay; format: functional, cell-based
A549 [26] = assay: Inhibition of colony formation in human A549 cells assessed as reduction in number of colonies at 64 to 128 uM measured after 48 hrs by colony formation assay; format: functional, cell-based; settings: dose 64-128 µM
A549 [27] = assay: Inhibition of colony formation in human A549 cells assessed as reduction in size of colonies at 64 to 128 uM measured after 48 hrs by colony formation assay; format: functional, cell-based; settings: dose 64-128 µM
A549 [28] = assay: Induction of apoptosis in human A549 cells assessed as increase in apoptotic cells at 256 uM measured after 48 hrs by Annexin V-FITC/PI staining based flow cytometry relative to control; format: functional
A549 [29] = assay: Cell cycle arrest in human A549 cells assessed as increase in cell population at G2 phase at 64 uM measured after 48 hrs by propidium iodide staining based flow cytometry; format: functional
A549 [30] = assay: Reduction in PDE5 gene expression in human A549 cells at 0.1 IC50 measured after 48 hrs by qRT-PCR analysis; format: functional, cell-based
A549 [31] = assay: Reduction in Bcl-2 gene expression in human A549 cells at 0.1 IC50 measured after 48 hrs by qRT-PCR analysis; format: functional, cell-based
A549 [32] = assay: Reduction in PDE5 protein expression in human A549 cells at 0.25 to 0.5 IC50 measured after 48 hrs by Western blot analysis; format: functional, cell-based

- IC50 (A549 [1]; A549, 24 h): 150 µM
- IC50 (A549 [2]; A549, 48 h): 128 µM
- IC50 (A549 [3]; A549, 72 h): 82.8 µM
- IC50 (NCI-H1299 [4]; NCI-H1299, 24 h): 76.1 µM
- IC50 (NCI-H1299 [5]; NCI-H1299, 48 h): 86.3 µM
- IC50 (NCI-H1299 [6]; NCI-H1299, 72 h): 70.5 µM
- IC50 (NCI-H661 [7]; NCI-H661, 24 h): 177 µM
- IC50 (NCI-H661 [8]; NCI-H661, 48 h): 80.4 µM
- IC50 (NCI-H661 [9]; NCI-H661, 72 h): 98.8 µM
SMILES: CCCOc1ccc(S(=O)(=O)NCCC2CCCN2C)cc1-c1nc2c(CCC)nn(C)c2c(=O)[nH]1 (stereo unspecified) [UDENAFIL]
- Activity (A549 [1]): Dose-Dependent Effect
- Activity (A549 [2]): Dose-Dependent Effect
- Activity (A549 [3]): Dose-Dependent Effect
- Activity (NCI-H1299 [4]): Dose-Dependent Effect
- Activity (NCI-H1299 [5]): Dose-Dependent Effect
- Activity (NCI-H1299 [6]): Dose-Dependent Effect
- Activity (NCI-H661 [7]): Dose-Dependent Effect
- Activity (NCI-H661 [8]): Dose-Dependent Effect
- Activity (NCI-H661 [9]): Dose-Dependent Effect
- Activity (A549 [10]): Tde
- Activity (NCI-H1299 [11]): Tde
- Activity (NCI-H661 [12]): Tde
- CI (A549 [13]): 0.95
- CI (NCI-H1299 [14]): 0.82
- CI (NCI-H661 [15]): 0.83
- fold change (FC) (A549 [16]): 1.7
- fold change (FC) (NCI-H1299 [17]): 2.4
- fold change (FC) (NCI-H661 [18]): 2.1
- CI (A549 [19]): 0.98
- CI (NCI-H1299 [20]): 0.88
- CI (NCI-H661 [21]): 0.8
- fold change (FC) (A549 [22]): 1.6
- fold change (FC) (NCI-H1299 [23]): 2.4
- fold change (FC) (NCI-H661 [24]): 2.3
- Activity (NCI-H1299 [25]): Dose-Dependent Effect
- inhibition (A549 [26]): Active
- inhibition (A549 [27]): Active
- Activity (A549 [28]): 55.9%
- Activity (A549 [29]): Active
- Activity (A549 [30]): Active
- Activity (A549 [31]): Active
- Activity (A549 [32]): Dose-Dependent Effect
